Assay results from patent publication US20240384268A1, “Oligonucleotides” (Hudson Institute of Medical Research, priority 2021, published 2024).

Biological target: T1, human TLR7 (Homo sapiens, UniProt Q9NYK1)
T1 construct: HA; host or cells: 293XL-hTLR7-HA (HEK293)
T1 sequence (Q9NYK1 27-1049): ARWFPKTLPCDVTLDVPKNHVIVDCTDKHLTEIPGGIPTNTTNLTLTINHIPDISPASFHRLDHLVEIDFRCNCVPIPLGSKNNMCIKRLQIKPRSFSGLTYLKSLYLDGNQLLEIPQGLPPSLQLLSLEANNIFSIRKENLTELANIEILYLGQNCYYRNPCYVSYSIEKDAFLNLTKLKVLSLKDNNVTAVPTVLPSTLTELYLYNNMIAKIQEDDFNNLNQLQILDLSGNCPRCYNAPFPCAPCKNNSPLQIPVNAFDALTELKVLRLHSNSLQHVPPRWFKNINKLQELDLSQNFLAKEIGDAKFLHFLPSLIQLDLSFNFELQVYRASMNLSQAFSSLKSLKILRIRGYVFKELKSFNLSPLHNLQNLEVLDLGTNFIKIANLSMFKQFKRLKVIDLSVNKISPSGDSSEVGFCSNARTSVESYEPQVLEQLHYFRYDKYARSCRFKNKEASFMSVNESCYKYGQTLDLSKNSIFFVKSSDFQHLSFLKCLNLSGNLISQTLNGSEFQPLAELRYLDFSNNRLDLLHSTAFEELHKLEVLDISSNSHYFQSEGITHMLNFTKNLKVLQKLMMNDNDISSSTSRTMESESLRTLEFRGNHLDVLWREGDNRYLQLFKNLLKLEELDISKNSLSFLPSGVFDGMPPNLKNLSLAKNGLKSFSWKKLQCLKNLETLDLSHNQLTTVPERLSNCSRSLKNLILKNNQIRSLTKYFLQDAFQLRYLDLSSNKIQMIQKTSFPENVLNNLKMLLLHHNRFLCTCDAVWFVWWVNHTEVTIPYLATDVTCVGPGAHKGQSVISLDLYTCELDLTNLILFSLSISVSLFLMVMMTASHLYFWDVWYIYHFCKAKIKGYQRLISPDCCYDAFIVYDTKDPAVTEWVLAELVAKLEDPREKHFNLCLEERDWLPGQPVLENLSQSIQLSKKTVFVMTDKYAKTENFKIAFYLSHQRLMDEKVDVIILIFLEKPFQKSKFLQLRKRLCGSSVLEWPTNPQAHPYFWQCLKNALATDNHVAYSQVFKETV
Test: HEK-TLR7 NF-κB-luciferase reporter, R848 stimulation
Assay type: cell-based
Conditions: averaged NF-κB-Luciferase relative to R848 condition; for TLR7 100 nM: MOE-modified ASO at 100 nM; for TLR7 500 nM: MOE-modified ASO at 500 nM

Sequence: TCCAACACTTCGTGGGGTCC (antisense; 2'-MOE modified, pattern not given here) [HPRT-667 MOE]
- TLR7 100 nM: 0.929
- TLR7 500 nM: 0.578

Sequence: AGATCTGGCAGCCCATCAAC (antisense; 2'-MOE modified, pattern not given here) [CTNN2B-2516 MOE]
- TLR7 100 nM: 0.500
- TLR7 500 nM: 0.201

Sequence: GGGAAAGGTTATGCAAGGTC (antisense; 2'-MOE modified, pattern not given here) [CTNN2B-916 MOE]
- TLR7 100 nM: 0.599
- TLR7 500 nM: 0.163

Sequence: GGCATCCACCACGTCGTCCA (antisense; 2'-MOE modified, pattern not given here) [EGFR-3266 MOE]
- TLR7 100 nM: 0.216
- TLR7 500 nM: 0.097

Sequence: CCAACACTTCGTGGGGTCCT (antisense; 2'-MOE modified, pattern not given here) [HPRT-666 MOE]
- TLR7 100 nM: 0.856
- TLR7 500 nM: 0.334

Sequence: TTGCACACTTCGTACCCAAA (antisense; 2'-MOE modified, pattern not given here) [CAMSAP1-4915 MOE]
- TLR7 100 nM: 0.418
- TLR7 500 nM: 0.233

Sequence: TCAAAGGACTGAGGAAAGGG (antisense; 2'-MOE modified, pattern not given here) [CAMSAP1-6273 MOE]
- TLR7 100 nM: 0.397
- TLR7 500 nM: 0.189

Sequence: GGTCCATACCCAAGGCATCC (antisense; 2'-MOE modified, pattern not given here) [CTNN2B-2446 MOE]
- TLR7 100 nM: 0.364
- TLR7 500 nM: 0.096

Sequence: ATGTGATGGCCTCCCATCTC (antisense; 2'-MOE modified, pattern not given here) [HPRT-333 MOE]
- TLR7 100 nM: 0.643
- TLR7 500 nM: 0.345

Sequence: GCTTCAGGCGCTGCCTTGCC (antisense; 2'-MOE modified, pattern not given here) [CAMSAP1-2709 MOE]
- TLR7 100 nM: 0.527
- TLR7 500 nM: 0.196

Sequence: CAATGTGATGGCCTCCCATC (antisense; 2'-MOE modified, pattern not given here) [HPRT-335 MOE]
- TLR7 100 nM: 0.451
- TLR7 500 nM: 0.279

Sequence: GCGTATTATAGCCGATTAAC (antisense; 2'-MOE modified, pattern not given here) [NC1 2′MOE]
- TLR7 100 nM: 0.565
- TLR7 500 nM: 0.265

Sequence: GTGTCCTTGCACGTGGCTTC (antisense; 2'-MOE modified, pattern not given here) [EGFR-1015 MOE]
- TLR7 100 nM: 0.377
- TLR7 500 nM: 0.212

Sequence: TGTGATGGCCTCCCATCTCC (antisense; 2'-MOE modified, pattern not given here) [HPRT-332 MOE]
- TLR7 100 nM: 0.312
- TLR7 500 nM: 0.238

Sequence: GGAGCTTCGAGGCCCCAGGC (MOE modified, pattern not given here) [MB21D1-616 MOE]
- TLR7 100 nM: 0.392
- TLR7 500 nM: 0.179

Sequence: ATCCAACACTTCGTGGGGTC (antisense; 2'-MOE modified, pattern not given here) [HPRT-668 MOE]
- TLR7 100 nM: 0.758
- TLR7 500 nM: 0.611

Sequence: TAGTCAAGGGCATATCCTAC (antisense; 2'-MOE modified, pattern not given here) [HPRT-732 MOE]
- TLR7 100 nM: 0.423
- TLR7 500 nM: 0.191

Sequence: GGAGGTCTTGGCTTCGTGGA (antisense; 2'-MOE modified, pattern not given here) [MB21D1-524 MOE]
- TLR7 100 nM: 0.434
- TLR7 500 nM: 0.091

Sequence: AATCCGCCCAAAGGGAACTG (antisense; 2'-MOE modified, pattern not given here) [HPRT-1027 MOE]
- TLR7 100 nM: 0.691
- TLR7 500 nM: 0.521

Sequence: GGTGTCCTTGCACGTGGCTT (antisense; 2'-MOE modified, pattern not given here) [EGFR-1016 MOE]
- TLR7 100 nM: 0.358
- TLR7 500 nM: 0.131

Sequence: GGTGGTGGCCACCCATCTCA (antisense; 2'-MOE modified, pattern not given here) [CTNN2B-2479 MOE]
- TLR7 100 nM: 0.480
- TLR7 500 nM: 0.192

Sequence: CAAGGCCCTTCGCACTTCTT (antisense; 2'-MOE modified, pattern not given here) [EGFR-1225 MOE]
- TLR7 100 nM: 0.587
- TLR7 500 nM: 0.336

Sequence: CAACACTTCGTGGGGTCCTT (antisense; 2'-MOE modified, pattern not given here) [HPRT-665 MOE]
- TLR7 100 nM: 0.487
- TLR7 500 nM: 0.285

Sequence: GCCGCTTTTCTGTCTGGTTC (antisense; 2'-MOE modified, pattern not given here) [CTNN2B-311 MOE]
- TLR7 100 nM: 0.567
- TLR7 500 nM: 0.268

Sequence: GATGCTCCTCGGTCTCCCTT (antisense; 2'-MOE modified, pattern not given here) [CAMSAP1-1850 MOE]
- TLR7 100 nM: 0.453
- TLR7 500 nM: 0.199

Sequence: TTGCCATGCTGGCTCGGACT (antisense; 2'-MOE modified, pattern not given here) [CAMSAP1-2584 MOE]
- TLR7 100 nM: 0.445
- TLR7 500 nM: 0.138

Sequence: TAGGCACTTTGCCTCCTTCT (antisense; 2'-MOE modified, pattern not given here) [EGFR-2859 MOE]
- TLR7 100 nM: 0.455
- TLR7 500 nM: 0.205

Sequence: AGGTCTTGGCTTCGTGGAGC (antisense; 2'-MOE modified, pattern not given here) [MB21D1-522 MOE]
- TLR7 100 nM: 0.547
- TLR7 500 nM: 0.150

Sequence: ACAACCCCTTTCACCATCCC (antisense; 2'-MOE modified, pattern not given here) [MB21D1-689 MOE]
- TLR7 100 nM: 0.593
- TLR7 500 nM: 0.533

Sequence: ATGTCCCGCCACTGGATGCT (antisense; 2'-MOE modified, pattern not given here) [EGFR-727 MOE]
- TLR7 100 nM: 0.397
- TLR7 500 nM: 0.171

Sequence: GATGGCCTCCCATCTCCTTC (antisense; 2'-MOE modified, pattern not given here) [HPRT-329 MOE]
- TLR7 100 nM: 0.678
- TLR7 500 nM: 0.336

Sequence: ACCCACTTGGCAGACCATCA (antisense; 2'-MOE modified, pattern not given here) [CTNN2B-1575 MOE]
- TLR7 100 nM: 0.473
- TLR7 500 nM: 0.336

Sequence: TGTCCTTGCACGTGGCTTCG (antisense; 2'-MOE modified, pattern not given here) [EGFR-1014 MOE]
- TLR7 100 nM: 0.029
- TLR7 500 nM: 0.057

Sequence: GTCCACATCCTGTGGCTCGT (antisense; 2'-MOE modified, pattern not given here) [CAMSAP1-2906 MOE]
- TLR7 100 nM: 0.299
- TLR7 500 nM: 0.119

Sequence: GAGGTCTTGGCTTCGTGGAG (antisense; 2'-MOE modified, pattern not given here) [MB21D1-523 MOE]
- TLR7 100 nM: 0.419
- TLR7 500 nM: 0.095

Sequence: CTTACTTTCCGAGGTGTCCA (antisense; 2'-MOE modified, pattern not given here) [CAMSAP1-1739 MOE]
- TLR7 100 nM: 0.588
- TLR7 500 nM: 0.336

Sequence: GAACCACGTCTGCTCTAACA (antisense; 2'-MOE modified, pattern not given here) [CAMSAP1-1635 MOE]
- TLR7 100 nM: 0.597
- TLR7 500 nM: 0.291

Sequence: CGTGTCTGGAAGCTTCCTTT (antisense; 2'-MOE modified, pattern not given here) [CTNN2B-808 MOE]
- TLR7 100 nM: 0.541
- TLR7 500 nM: 0.350
